These results are taken from patent publication US10414788B2, “Substituted thienopyrrolopyrimidine ribonucleosides for therapeutic use” (USTAV ORGANICKE CHEMIE A BIOCHEMIE AV CR, V.V.I., priority 2016, dated 2019).

As usually defined, the IC50 is the concentration that inhibits the measured activity by half. As usually defined, the melting point is the temperature of the solid-liquid transition.

Data set [1] relates to HCT116p53−/− (human colorectal cancer, mutant p53). Put plainly: MTT in vitro cytotoxic test, HCT116p53. In kind it is cell-based. The settings on record: HCT116p53−/− cells. The source says: (§1) MTT test was used for in vitro evaluation of antitumor activities of newly synthesized compounds on cell lines derived from normal tissues or tumors. Specifically, cell lines K562 (human […]), K562-Tax (human […] myeloid leukemia, paclitaxel resistant subline, overexpress multiple drug resistant protein PgP), CEM (T-lymfoblastic leukemia), CEM-DNR-bulk (T-lymfoblastic leukemia, doxorubicin resistant), A549 (human lung adenocarcinoma), HCT116 wt (human colorectal cancer, wild-type), HCT116p53−/−(human colorectal cancer, mutant p53) a U2OS (human bone osteosarcoma) were used.
(§2) Express characteristics, susceptibility profiles of classic antitumor drugs as well as methodology of cytotoxic MTT test have been repeatedly published {ref.:Noskova, V.; Dzubak, P.; Kuzmina, G.; Ludkova, A.; Stehlik, D.; Trojanec, R.; Janostakova, A.; Korinkova, G.; Mihal, V.; Hajduch, M., Neoplasma 2002, 49, 418-425}.

For data set [2], the system named is A549 (human lung adenocarcinoma). Put plainly: MTT in vitro cytotoxic test, A549. In kind it is cell-based. The settings on record: A549 cells.
Source text: as §1, §2

The test system of data set [3] is K562 (human acute myeloid leukemia). As to the kind of experiment: MTT in vitro cytotoxic test, K562. Format: cell-based. The settings on record: K562 cells.
Source text: as §1, §2

For data set [4], the system named is HCT116 wt (human colorectal cancer, wild-type). As to the kind of experiment: MTT in vitro cytotoxic test, HCT116. In kind it is cell-based. Conditions: HCT-116, HCT116 cells (p53 wild type).
Source text: as §1, §2

Data set [5] has as its system CEM-DNR-bulk (T-lymfoblastic leukemia, doxorubicin resistant). Put plainly: MTT in vitro cytotoxic test, CEM-DNR. Format: cell-based. The settings on record: Homo sapiens, CEM-DNR cells (doxorubicin resistant).
Source text: as §1, §2

For data set [6], the system named is CCRF-CEM (CEM, T-lymfoblastic leukemia). As to the kind of experiment: MTT in vitro cytotoxic test, CCRF-CEM. Format: cell-based. The settings on record: Homo sapiens, CCRF-CEM cells.
Source text: as §1, §2

Data set [7] has as its system U2OS (human bone osteosarcoma). As to the kind of experiment: MTT in vitro cytotoxic test, U2OS. Format: cell-based. The settings on record: U2OS cells.
Source text: as §1, §2

Data set [8] concerns K562-Tax (human acute myeloid leukemia, paclitaxel resistant subline). As to the kind of experiment: MTT in vitro cytotoxic test, K562-TAX. In kind it is cell-based. The settings on record: K562-TAX cells (paclitaxel resistant).
Source text: as §1, §2

In data set [9] the test system is cancer cell lines of various histogenetic origin. As to the kind of experiment: In vitro cytotoxic test, summary over cancer cell lines. The settings on record: text summary of Table 4. Format: cell-based, human.
Source text: as §1, §2

Turning to `OC[C@H]1O[C@@H](n2c3ncnc(-c4ccco4)c3c3ccsc32)[C@H](O)[C@@H]1O` [Compound 1a, 4-(Furan-2-yl)-8-(β-D-ribofuranosyl)-8H-thieno[3′,2′:4,5]pyrrolo[2,3-d]pyrimidine], the half-maximal inhibitory concentration (IC50) in data set [1], in data set [2], in data set [3], in data set [4], in [5] and in data set [6] was 25 to 50 µM each time. Moreover, the IC50 in data set [7] and in [8] was 25 to 50 µM in each case.
For the compound `OC[C@H]1O[C@@H](n2c3ncnc(-c4ccoc4)c3c3ccsc32)[C@H](O)[C@@H]1O` [Compound 1b, 4-(Furan-3-yl)-8-(β-D-ribofuranosyl)-8H-thieno[3′,2′:4,5]pyrrolo[2,3-d]pyrimidine], the IC50 in [1], in [2], in data set [3], in data set [4], in data set [5] and in data set [6] was 25 to 50 µM throughout. The IC50 in [7] and in data set [8] was 25 to 50 µM throughout.
Consider `OC[C@H]1O[C@@H](n2c3ncnc(-c4cc5ccccc5o4)c3c3ccsc32)[C@H](O)[C@@H]1O` [Compound 1c, 4-(Benzofuran-2-yl)-8-(β-D-ribofuranosyl)-8H-thieno[3′,2′:4,5]pyrrolo[2,3-d]pyrimidine], for which the half-inhibitory concentration (IC50) was 25 to 50 µM in data set [1]; 25 to 50 µM in data set [2]; 25 to 50 µM in data set [3]; 25 to 50 µM in [4]; 10 to 25 µM in [5]; 10 to 25 µM in data set [6]. Further, the values for the IC50 in data set [7] and in [8] were 25 to 50 µM and 10 to 25 µM, respectively. Moreover, the “IC50 values (range in words)” value in [9] is “micromolar range”.
`Cc1ncnc2c1c1ccsc1n2[C@@H]1O[C@H](CO)[C@@H](O)[C@H]1O` [Compound 1d, 4-Methyl-8-(β-D-ribofuranosyl)-8H-thieno[3′,2′:4,5]pyrrolo[2,3-d]pyrimidine] registered a melting point of 126 to 128 °C. Moreover, the IC50 in data set [1] is 0.2 to 0.9 µM. The compound also came in with an IC50 in [2] of 0.2 to 0.9 µM. The IC50 in data set [3] is 0.01 to 0.2 µM. The concentration for half-maximal inhibition (IC50) in data set [4] was in the range of 0.2 to 0.9 µM. The IC50 in data set [5] was 25 to 50 µM. In addition, the “IC50 values (range in words)” value in [9] was “sub-micromolar to nanomolar”. The compound further returned an IC50 in [6] of 0.01 to 0.2 µM. For the same compound, the IC50 in data set [7] was in the range of 0.01 to 0.2 µM. Further, the IC50 in data set [8] lay in the range of 0.9 to 10 µM.
`CN(C)c1ncnc2c1c1ccsc1n2[C@@H]1O[C@H](CO)[C@@H](O)[C@H]1O` [Compound 1e, 4-(N,N-dimethylamino)-8-(β-D-ribofuranosyl)-8H-thieno[3′,2′:4,5]pyrrolo[2,3-d]pyrimidine] returned a melting point of 117 °C. In [1], this compound displayed an IC50 of 25 to 50 µM. In data set [2], this compound returned an IC50 of 25 to 50 µM. The IC50 in data set [3] lay within 25 to 50 µM. The compound also had an IC50 in [4] of 25 to 50 µM. This compound also registered an IC50 in data set [5] of 25 to 50 µM. Besides, the half-maximal inhibitory concentration (IC50) in data set [6] lay in the range of 25 to 50 µM. In addition, the IC50 in [7] is 25 to 50 µM. The half-inhibitory concentration (IC50) in [8] lay within 25 to 50 µM.
`Nc1ncnc2c1c1ccsc1n2[C@@H]1O[C@H](CO)[C@@H](O)[C@H]1O` [Compound 1f, 4-Amino-8-(β-D-ribofuranosyl)-8H-thieno[3′,2′:4,5]pyrrolo[2,3-d]pyrimidine]: the melting point amounted to 98 °C. This compound also registered an IC50 in data set [1] of 0.9 to 10 µM. Moreover, the IC50 in data set [2] was in the range of 25 to 50 µM. The compound also registered a half-maximal inhibitory concentration (IC50) in data set [3] of 25 to 50 µM. In data set [4], this compound came in with an IC50 of 25 to 50 µM. The same compound displayed a concentration for half-maximal inhibition (IC50) in data set [5] of 25 to 50 µM. Also, the “IC50 values (range in words)” value in data set [9] is recorded as “micromolar range”. For the same compound, in data set [6], the IC50 was in the range of 0.2 to 0.9 µM. In addition, the IC50 in data set [7] was 0.2 to 0.9 µM. Further, in data set [8], the half-inhibitory concentration (IC50) fell in the range of 0.2 to 0.9 µM.
In turn, `COc1ncnc2c1c1ccsc1n2[C@@H]1O[C@H](CO)[C@@H](O)[C@H]1O` [Compound 1g, 4-Methoxy-8-(β-D-ribofuranosyl)-8H-thieno[3′,2′:4,5]pyrrolo[2,3-d]pyrimidine] displayed a melting point of 159 to 160 °C. The compound also registered an IC50 in data set [1] of 0.2 to 0.9 µM. In addition, in data set [2], the IC50 lay in the range of 0.9 to 10 µM. The compound also yielded a half-inhibitory concentration (IC50) in data set [3] of 0.2 to 0.9 µM. Moreover, in data set [4], the IC50 was 0.2 to 0.9 µM. Moreover, in data set [5], the IC50 was 25 to 50 µM. In addition, the “IC50 values (range in words)” value in data set [9] is reported as “sub-micromolar to nanomolar”. In data set [6], this compound yielded a 50% inhibitory concentration (IC50) of 0.01 to 0.2 µM. In data set [7], the IC50 fell in the range of 0.01 to 0.2 µM. In data set [8], this compound came in with an IC50 of 10 to 25 µM.
Regarding `CSc1ncnc2c1c1ccsc1n2[C@@H]1O[C@H](CO)[C@@H](O)[C@H]1O` [Compound 1h, 4-(Methylsulfanyl)-8-(β-D-ribofuranosyl)-8H-thieno[3′,2′:4,5]pyrrolo[2,3-d]pyrimidine], the melting point was in the range of 148 to 152 °C. For the same compound, the half-inhibitory concentration (IC50) in data set [1] was in the range of 0.2 to 0.9 µM. The compound further displayed an IC50 in data set [2] of 0.2 to 0.9 µM. In data set [3], the IC50 was in the range of 0.2 to 0.9 µM. In data set [4], the concentration for half-maximal inhibition (IC50) was in the range of 0.01 to 0.2 µM. In addition, the IC50 in [5] lay within 25 to 50 µM. Moreover, in [9], the “IC50 values (range in words)” value is “sub-micromolar to nanomolar”. This compound displayed an IC50 in [6] of 0.01 to 0.2 µM. Further, the IC50 in [7] lay in the range of 0.01 to 0.2 µM. Moreover, the IC50 in [8] fell in the range of 10 to 25 µM.
